Measured values as given in US5656736A, “Compound UCH9” (Kyowa Hakko Kogyo Co., Ltd., priority 1993, dated 1997).
In brackets after ≈: the same amount, converted by molar mass. Counter-ions that a name gives are not always drawn.

Experiments:
[1] = tested on: Bacillus subtilis No. 10707; assay: Antibacterial activity, agar dilution method (MIC); type: cell-based; conditions: pH 7
Procedure: (§1) The minimum inhibitory concentration (MIC) of the compound obtained in Example 1 against the growth of various bacteria is shown in Table 1.
(§2) The antibacterial activity was determined by the agar dilution method using a medium (pH 7) which comprises 3 g/l Bacto-tryptone (Difco Laboratories),3 g/l meat extract, 1 g/l yeast extract, 1 g/l glucose and 16 g/l agar.

[2] = tested on: Enterococcus faecium ATCC 10541; assay: Antibacterial activity, agar dilution method (MIC); type: cell-based; conditions: ATCC10541, pH 7
Procedure: as §1, §2

[3] = tested on: Staphylococcus aureus ATCC 6538P; assay: Antibacterial activity, agar dilution method (MIC); type: cell-based; conditions: ATCC6538P, pH 7
Procedure: as §1, §2

[4] = tested on: HeLa S3 cells (ATCC HTB22); assay: Growth inhibition against HeLa S3 cells (Neutral Red staining); type: cell-based; conditions: Homo sapiens, 72 hours, 37° C.
Procedure: HeLa S3 cells (ATCC HTB22) were suspended in a medium comprising 10% fetal calf serum, 2 mM glutamine and MEM medium (Nippon Pharmaceutical Co., Ltd.) (hereinafter referred to as medium A) to a concentration of 3×10^4 cells/mi. The cell suspension was put into wells of a 96-well microtiter plate in an amount of 0.1 ml per well. The cells in the plate were cultured at 37° C. for 20 hours in a CO2 -incubator. Subsequently, the test compound obtained in Example 1 which was appropriately diluted with medium A was added to the wells in an amount of 0.1 ml/well. The cells were further cultured at 37° C. for 72 hours in the CO2 -incubator, and then the culture supernatant was removed. To the residue was added a medium comprising medium A and 0.02% Neutral Red in an amount of 0.1 ml per well, followed by culturing at 37° C. for one hour in the CO2 -incubator, whereby the cells were stained. After removal of the culture supernatant, the residue was washed once with physiological saline. The pigment was extracted with 0.001N hydrochloric acid/30% ethanol, and the absorbance at 550 nm was measured by using a microplate reader. The concentration of the test compound at which the growth of the cells is inhibited by 50% (IC50) was calculated by comparing the absorbance of untreated cells with those of the cells treated with the test compound at known concentrations.

[5] = Solubility; type: physicochemical

Compound `CCC(C)c1c(OC2CC(O)C(O)C(C)O2)cc2cc3c(c(O)c2c1O)C(=O)C(OC1CC(OC2CC(OC4CC(OC5CC(OC)C(O)C(C)O5)C(O)C(C)O4)C(O)C(C)O2)C(O)C(C)O1)C(C(OC)C(=O)C(O)C(C)O)C3` (centres unmarked) [UCH9] has an MIC [1] of 0.04 µg/mL (≈ 0.0355 µM), an MIC [2] of 41.6 µg/mL (≈ 36.9 µM) and an MIC [3] of 5.2 µg/mL (≈ 4.61 µM). For the same compound, the IC50 [4] was 0.015 µg/mL (≈ 0.0133 µM).
With `CCC(C)c1c(OC2CC(O)C(O)C(C)O2)cc2cc3c(c(O)c2c1O)C(=O)C(OC1CC(OC2CC(OC4CC(OC5CC(OC)C(O)C(C)O5)C(O)C(C)O4)C(O)C(C)O2)C(O)C(C)O1)C(C(OC)C(=O)C(O)C(C)O)C3` (centres unmarked) [UCH9·1/2 magnesium salt] the Solubility ([5]; chloroform) was “sparingly soluble”, the Solubility ([5]; dimethylsulfoxide (DMSO)) was “Soluble” and the Solubility ([5]; methanol) was “Soluble”. The Solubility ([5]; water) was “sparingly soluble”.
